In series [1] the test system is InMyoFib human colon myofibroblast cell line. Nature of the series: Immunoblot study of HPH-15 on TGF-β1-stimulated InMyoFib cells. The note with it: InMyoFib cells stimulated with TGF-β1 (5 ng/ml) and HPH-15 for 24 hours. The format is cell-based. Background: A western blot detects proteins with antibodies after separation by electrophoresis.
Description: An InMyoFib human colon myofibroblast cell line, which reproduces an inflammatory bowel disease, was used. The culture condition was as follows: culture medium SmBM with 5% fetal bovine serum (FBS), antibiotics, and growth factors (insulin, hFGF-B, hEGF, FBS, and gentamicin/amphotericin-B). Cells at 10 to 17 passages were used.
The test system of another series is Human dermal fibroblasts. Nature of the series: Immunoblot study of HPH-15 on TGF-β-treated human dermal fibroblasts. The format is cell-based. The settings on record: after 2 ng/mL TGF-β for 24 hours, FIG. 3. An excerpt:
Collagen was observed by immunoblot.

Series [2] relates to bleomycin (BLM)-induced scleroderma mouse model. The protocol:
An eight-to-ten-week-old female C57BL/6 mouse was injected subcutaneously with 150 μl of bleomycin (dissolved in physiological saline at 1 mg/ml) or with 150 μl of physiological saline as a control on the shaved back once a day for 6 weeks on alternate days. […] For each group, the body weights of the mice before the start of the test and at the time of the tissue collection (6 weeks later) were measured and compared. A Student's t-test was used for statistics. Four mice are used for each group. […] Mouse skin tissue for HE staining was collected with a scalpel and a knife. The skin tissue was fixed with 4% paraformaldehyde, and HE-stained slides were prepared from the paraffin block. A representative stained image of each group was shown (FIG. 4b). • c. For the dermal thickness, the distance between the epidermis-dermis boundary and the subcutaneous fatty tissue was measured using HE staining. For statistics, a parametric multiple comparison test by the Tukey-Kramer method was performed. Four mice were used for each group. […] In order to compare the amounts of collagen in the skin tissues, the skins were collected using a 4 mm Derma punch centering on the bleomycin-injected site on the back skin of the mice. For the measurement of the amount of collagen, Sircol Soluble Collagen Assay Kit (#S1000, Funakoshi Co., Ltd.) was used. The amount (μg) of collagen in the skin tissue was graphed using four mice for each group. For statistics, the Tukey-Kramer method was used.

Regarding `CC(C)(C)SCCNC(=S)c1cccc(C(=S)NCCSC(C)(C)C)n1` [HPH-15], the “amount of phosphorylated Smad (P-Smad)” value in series [1] (FIG. 1) is listed as “reduced by the HPH-15 treatment in a dose-dependent manner”. Besides, the “amount of collagen I” value in series [1] (FIG. 2) was “reduced by the HPH-15 treatment in a dose-dependent manner”. For the same compound, the expression of collagen entry is “suppressed” in the series with Human dermal fibroblasts (5 μM HPH-15, 48 hours) and “suppressed” in the series on Human dermal fibroblasts (10 μM HPH-15, 48 hours). In addition, in series [2] (HPH-15 dose of 50 mg/kg/day or more, oral, 4 weeks, HE staining, FIGS. 4b, c), the “dermal thickness increased by bleomycin” value is “significantly reduced”. Further, the “systemic condition of the mice” value in series [2] (each dose 50, 100, 200, 300 mg/kg/day oral for 4 weeks, 6 weeks after the start of the test) was “kept well”. For the same compound, the “body weight at skin collection compared with before the start of the test” value in series [2] (each dose 50, 100, 200, 300 mg/kg/day oral for 4 weeks, 6 weeks after the start of the test, FIG. 4a) was “no significant decrease in body weight”.
